According to patent US20250243488A1, “METHODS OF MODULATING PROGRANULIN EXPRESSION USING ANTISENSE OLIGONUCLEOTIDES TARGETING REGULATORY RNAS” (Camp4 Therapeutics Corporation, priority 2022, published 2025):
Oligonucleotides are written 5' to 3', each unit as a sugar letter and its base; * is a phosphorothioate linkage, no mark a phosphodiester; rarer units and linkages stand in square brackets, end groups in braces. Plain capitals give the bases only. e = 2'-O-(2-methoxyethyl) (MOE); l = locked nucleic acid (LNA); [5mC] = 5-methylcytosine; d = 2'-deoxy (DNA)

Test system: GRN mRNA
Assay: GRN mRNA qPCR in SK-N-AS cells transfected with ASOs
Format: cell-based, human
Conditions: SK-N-AS; for 120 nM FC (GRN mRNA) / hGRN mRNA FC: 120 nM
Protocol: The best ASOs based on increased GRN mRNA fold-change were selected for further characterization in dose titration studies. Briefly, human neuroblastoma SK-N-AS cells were transfected with 20 to 160 nM of ASOs CO-3423, CO-3431, CO-3463, and CO-3503. A steric non-targeting control ASO (sNTC) was used as a control. Cells were collected for mRNA analysis after 48 hours and GRN mRNA quantified by qPCR. Housekeeping genes for normalization were GAPDH and PPIA, and mRNA fold change (FC) was normalized to sNTC.
36 additional ASOs were designed with different modifications and base walking around selected ASOs. The effect of increasing doses of these ASOs was assessed in the human neuroblastoma cell line SK-N-AS following transfection. Relative GRN mRNA levels in SK-N-AS cells after treatment was assessed 48-hours post-transfection, and data from exemplary ASOs is shown in FIGS. 5A and 5B.
Additional chemical modifications, including LNA, modifications were made to CO-3423. SK-N-AS cells were transfected with increasing concentrations of the LNA/PS modified ASOs and GRN mRNA quantified by qPCR. ASOs including different LNA modifications of CO-3423 had similar efficacy (i.e, similar increased GRN mRNA expression). GRN mRNA was normalized to the average fold-change of cells treated with two steric non-targeting control ASOs (CO-3772 and CO-1589 (sNTC1)).
The effect of ASO length on GRN gene expression modulation was also investigated. SK-N-AS cells were transfected with increasing concentrations of the longer ASOs and GRN mRNA quantified by qPCR. Increasing the length of CO-3423 increased the potency of the ASO, as shown in Table 4. mRNA was normalized to the average fold change of cells treated with two steric non-targeting control ASOs (CO-3772 and CO-1589 (sNTC1)).
To determine whether variations in the PO/PS internucleotide bond linkages impacted the ability of CO-3423 and CO-3431 to modulate gene expression, several modified ASOs based on these parent ASOs were prepared. SK-N-AS cells were transfected with increasing concentrations of the mixed PO/PS bond ASOs described in Tables 5 and 6, and GRN mRNA quantified by qPCR.
GRN mRNA fold-change after treatment with mixed PO/PS bond versions of CO-3423 is shown in Table 5. mRNA was normalized to the average fold change of cells treated with steric nontargeting controls (CO-3772, CO-1589 (sNTC1), and CO-1929 (sNTC3)).
GRN mRNA fold-change after treatment with mixed PO/PS bond versions of CO-3431 is shown in Table 6. mRNA was normalized as described above.
To further assess the effect of additional modifications on the ability of CO-3423 parent ASO to modulate GRN gene expression, additional LNA tiling and PO bond modifications were incorporated to CO-3423. SK-N-AS cells were transfected with increasing concentrations of the modified ASOs and GRN mRNA quantified by qPCR. CO-3423 was used for comparison. GRN mRNA was normalized to the average fold-change of cells treated with a steric non-targeting control ASO, CO-1589 (sNTC1).
To further assess the effect of modifications on the ability of CO-3463 parent ASO to modulate GRN gene expression, ASOs based on this ASOS incorporating additional LNA modifications were prepared and compared to […]. SK-N-AS cells were transfected with increasing concentrations of the ASOs and GRN mRNA quantified by qPCR. GRN mRNA was normalized to the average fold-change of cells treated with a steric non-targeting control ASO, CO-1589 (sNTC1).
68 additional ASOs were designed to target intergenic enhancers (eRNA). 48 hours post-transfection, the cells were collected for GRN mRNA analysis using qPCR. CO-1589, a steric nontargeting control ASO, was used as a control. GRN mRNA was normalized to cells treated with CO-1589.
The best hits from these ASOs were tested in a dose escalation study. Cells were incubated for 48 hours. Subsequently, the cells were collected for mRNA quantification via RT-qPCR. […]

[1] = Table 12, normalized to CO-1589
[2] = Table 13, normalized to CO-1589
[3] = Table 3, normalized to CO-3772 and CO-1589 (sNTC1)
[4] = Table 9, 48 hours post-transfection, normalized to CO-1589
[5] = Table 10, 48 hours, normalized to CO-1589
[6] = Table 11, 48 hours, normalized to CO-1589

Substance: CO-6389: ASO based on parent ASO CO-3462 (antisense eT*eA*eG*lG*eA*dG*dA*lA*dT*d[5mC]*dG*l[5mC]*dT*dT*dT*lG*eG*eG*eA*eG)
- 30 nM FC (GRN mRNA) [1]: 1.0 FC
- 60 nM FC (GRN mRNA) [1]: 1.0 FC
- 120 nM FC (GRN mRNA) [1]: 2.1 FC

Substance: CO-6387: ASO based on parent ASO CO-3462 (antisense eT*eA*eG*eG*eA*dG*dA*dA*eT*d[5mC]*dG*e[5mC]*dT*dT*dT*eG*eG*eG*eA*eG)
- 30 nM FC (GRN mRNA) [1]: 1.3 FC
- 60 nM FC (GRN mRNA) [1]: 1.0 FC
- 120 nM FC (GRN mRNA) [1]: 1.1 FC

Substance: CO-6426: ASO based on parent ASOs CO-4363 and CO-4364 (eG*eG*eA*e[5mC]*eT*eT*eG*eG*eG*eA*eG*eT*eG*eG*eT*eG*eA*e[5mC]*eT*eG*eA*eA*e[5mC]*e[5mC])
- 30 nM FC (GRN mRNA) [2]: 0.8 FC
- 60 nM FC (GRN mRNA) [2]: 1.5 FC
- 120 nM FC (GRN mRNA) [2]: 1.3 FC

Substance: CO-4357: LNA/PS modified ASO based on CO-3423 (antisense eG*eG*eA*e[5mC]*lT*eT*eG*eG*lG*eA*eG*eT*lG*eG*eT*eG*lA*e[5mC]*eT*eG)
- 30 nM FC (GRN mRNA) [3]: 1.5 FC
- 60 nM FC (GRN mRNA) [3]: 1.7 FC
- 120 nM FC (GRN mRNA) [3]: 2.4 FC

Substance: CO-6388: ASO based on parent ASO CO-3462 (antisense eT*eA*eG*eG*eA*lG*dA*dA*lT*d[5mC]*dG*l[5mC]*dT*dT*lT*eG*eG*eG*eA*eG)
- 30 nM FC (GRN mRNA) [1]: 1.1 FC
- 60 nM FC (GRN mRNA) [1]: 1.0 FC
- 120 nM FC (GRN mRNA) [1]: 1.4 FC

Substance: CO-6413: ASO based on parent ASOs CO-4363 and CO-4364 (antisense eG*eG*eA*e[5mC]*eT*dT*dG*dG*eG*dA*dG*dT*eG*dG*dT*dG*eA*e[5mC]*eT*eG*eA)
- 30 nM FC (GRN mRNA) [2]: 1.0 FC
- 60 nM FC (GRN mRNA) [2]: 0.6 FC
- 120 nM FC (GRN mRNA) [2]: 0.7 FC

Substance: CO-4606: ASO designed to target intergenic enhancers (eRNA) (antisense eA*e[5mC]*eG*eT*eG*eA*eA*eG*eA*eG*e[5mC]*e[5mC]*eG*eG*eA*eG*eA*eT*eT*e[5mC])
- hGRN mRNA FC [4]: 1.4 FC
- 3.75 nM FC (GRN mRNA) [5]: 1.1 FC
- 7.5 nM FC (GRN mRNA) [5]: 1.1 FC
- 15 nM FC (GRN mRNA) [5]: 1.2 FC
- 30 nM FC (GRN mRNA) [5]: 1.3 FC
- 60 nM FC (GRN mRNA) [5]: 1.4 FC
- 120 nM FC (GRN mRNA) [5]: 1.7 FC

Substance: CO-4628: ASO designed to target intergenic enhancers (eRNA) (antisense eT*e[5mC]*e[5mC]*eA*eT*eA*e[5mC]*eA*eA*e[5mC]*eT*eG*e[5mC]*eA*eG*eA*eG*eT*eG*eG)
- hGRN mRNA FC [4]: 1.0 FC

Substance: CO-6453: ASO designed to target an intragenic enhancer RNA (eRNA) (eG*eA*eA*eA*eA*eA*eG*eT*eT*eT*e[5mC]*e[5mC]*eT*e[5mC]*e[5mC]*eA*eT*e[5mC]*e[5mC]*eT)
- hGRN mRNA FC [6]: 0.9 FC

Substance: CO-4353: LNA/PS modified ASO based on CO-3423 (antisense eG*eG*eA*e[5mC]*eT*lT*dG*dG*lG*dA*dG*lT*dG*dG*lT*eG*eA*e[5mC]*eT*eG)
- 30 nM FC (GRN mRNA) [3]: 1.4 FC
- 60 nM FC (GRN mRNA) [3]: 1.4 FC
- 120 nM FC (GRN mRNA) [3]: 1.8 FC

Substance: CO-6513: ASO based on parent ASO CO-3462 (antisense eT*eA*eGeGeAeGeAeAeT*e[5mC]*eG*e[5mC]*eT*eT*eT*eG*eG*eG*eA*eG)
- 30 nM FC (GRN mRNA) [1]: 1.3 FC
- 60 nM FC (GRN mRNA) [1]: 2.7 FC
- 120 nM FC (GRN mRNA) [1]: 1.8 FC

Substance: CO-6392: ASO based on parent ASO CO-3462 (antisense eT*eA*eG*lG*eA*lG*eA*lA*eT*l[5mC]*eG*l[5mC]*eT*lT*eT*lG*eG*lG*eA*eG)
- 30 nM FC (GRN mRNA) [1]: 1.0 FC
- 60 nM FC (GRN mRNA) [1]: 0.8 FC
- 120 nM FC (GRN mRNA) [1]: 1.0 FC

Substance: CO-4631: ASO designed to target intergenic enhancers (eRNA) (antisense eA*e[5mC]*e[5mC]*eA*e[5mC]*eT*e[5mC]*eT*eG*e[5mC]*eA*eG*eT*eT*eG*eT*eA*eT*eG*eG)
- hit identification (GRN mRNA dose escalation) (3.75 nM to 120 nM, 48 hours): initial hits
- hGRN mRNA FC [4]: 1.1 FC
- 3.75 nM FC (GRN mRNA) [5]: 1.1 FC
- 7.5 nM FC (GRN mRNA) [5]: 1.1 FC
- 15 nM FC (GRN mRNA) [5]: 1.2 FC
- 30 nM FC (GRN mRNA) [5]: 1.1 FC
- 60 nM FC (GRN mRNA) [5]: 1.1 FC
- 120 nM FC (GRN mRNA) [5]: 1.3 FC

Substance: CO-6429: ASO based on parent ASOs CO-4363 and CO-4364 (eA*eG*eG*eG*eA*e[5mC]*eT*eT*eG*eG*eG*eA*eG*eT*eG*eG*eT*eG*eA*e[5mC]*eT*eG*eA*eA*e[5mC]*e[5mC])
- 30 nM FC (GRN mRNA) [2]: 1.0 FC
- 60 nM FC (GRN mRNA) [2]: 1.5 FC
- 120 nM FC (GRN mRNA) [2]: 1.4 FC

Substance: CO-4642: ASO designed to target intergenic enhancers (eRNA) (antisense eG*eG*e[5mC]*eT*eG*e[5mC]*eA*eG*eA*eT*e[5mC]*eT*e[5mC]*eT*eA*eT*eA*eT*e[5mC]*eA)
- hGRN mRNA FC [4]: 1.0 FC

Substance: CO-6444: ASO designed to target an intragenic enhancer RNA (eRNA) (eT*eG*e[5mC]*e[5mC]*e[5mC]*eA*eA*eT*eG*e[5mC]*e[5mC]*e[5mC]*eA*eA*e[5mC]*eG*eT*eG*eA*eG)
- hGRN mRNA FC [6]: 1.0 FC

Substance: CO-6417: ASO based on parent ASOs CO-4363 and CO-4364 (eG*eG*eA*e[5mC]*lT*eT*eG*eG*lG*eA*eG*eT*lG*eG*eT*eG*lA*e[5mC]*eT*eG*eA)
- 30 nM FC (GRN mRNA) [2]: 1.4 FC
- 60 nM FC (GRN mRNA) [2]: 2.3 FC
- 120 nM FC (GRN mRNA) [2]: 2.8 FC

Substance: CO-6393: ASO based on parent ASO CO-3462 (antisense eT*eA*lG*eG*lA*eG*lA*eA*lT*e[5mC]*lG*e[5mC]*lT*eT*lT*eG*lG*eG*eA*eG)
- 30 nM FC (GRN mRNA) [1]: 0.9 FC
- 60 nM FC (GRN mRNA) [1]: 0.7 FC
- 120 nM FC (GRN mRNA) [1]: 1.0 FC

Substance: CO-4608: ASO designed to target intergenic enhancers (eRNA) (antisense eT*eA*eG*eA*e[5mC]*eA*e[5mC]*eT*eT*e[5mC]*e[5mC]*eA*eG*e[5mC]*e[5mC]*e[5mC]*eA*e[5mC]*e[5mC]*eT)
- hGRN mRNA FC [4]: 1.1 FC

Substance: CO-4600: ASO designed to target intergenic enhancers (eRNA) (antisense eT*eT*eA*eG*e[5mC]*eA*e[5mC]*eG*eT*eG*eG*eA*e[5mC]*eT*e[5mC]*e[5mC]*eG*eA*eG*eG)
- hGRN mRNA FC [4]: 1.0 FC
